Where two headings read alike, the source gives them in different places.
Tests used:
weeds [1] = test: Post-emergence test (herbicidal action); format: in vivo; details: test plants of 5-15 cm sprayed, rated after three weeks
Protocol: Post-Emergence Test (Herbicidal Action)
(§1) To produce a suitable preparation of active compound, 1 part by weight of active compound is mixed with the stated amount of solvent, the stated amount of emulsifier is added and the concentrate is diluted with water to the desired concentration.
Test plants of a height of 5-15 cm are sprayed with the preparation of active compound such that the particular amounts of active compound desired are applied per unit area. The concentration of the spray liquor is chosen such that the particular amounts of active compound desired are applied in 1000 l of water/ha.
(§2) After three weeks, the degree of damage to the plants is rated in % damage in comparison to the development of the untreated control.

[2] = logP determination by reversed-phase HPLC (EEC Directive 79/831 Annex V.A8), acidic range; format: physicochemical
Protocol: The logP values given in the table were determined in accordance with EEC Directive 79/831 Annex V.A8 by HPLC (High Performance Liquid Chromatography) using a reversed-phase column (C 18). Temperature: 43° C.
(a) Mobile phases for the determination in the acidic range: 0.1% phosphoric acid, acetonitrile; linear gradient from 10% acetonitrile to 90% acetonitrile—the corresponding measurement results in Table 1 are marked a).
Calibration was carried out using unbranched alkan-2-ones (having 3 to 16 carbon atoms) with known logP values (determination of the logP values by the retention times using linear interpolation between two successive alkanones).

weeds [3] = test: Pre-emergence test (herbicidal action); format: in vivo; details: soil sprayed 24 hours after sowing, rated after three weeks
Protocol: Pre-Emergence Test (Herbicidal Action)
as §1
Seeds of the test plants are sown in normal soil. After 24 hours, the soil is sprayed with the preparation of active compound such that the particular amount of active compound desired is applied per unit area. The concentration of active compound in the spray liquor is chosen such that the particular amount of active compound desired is applied in 1000 litres of water per hectare.
as §2

[4] = pH 2, HPLC, C18 reversed-phase column, read-out: logP (pH 2)

Compound: 1-(3-chloro-5-trifluoromethylpyridin-2-yl)-4-methoxy-6-cyclopropylpyrazolopyrimidin-4-one [Example 110]
- herbicidal action against weeds (degree of damage) (weeds [1]): strong action against weeds
- logP a) (Table 1, Physical data) [2]: (Ia) logP = 3.97^a)
- logP (pH 2) ([2]; pH 2): 3.97

Compound: O=c1[nH]cnc2c1cnn2-c1ncc(C(F)(F)F)cc1Cl [Example 1, 1-(3-chloro-5-trifluoromethylpyridin-2-yl)-1,5-dihydropyrazolo[3,4-d]pyrimidin-4-one]
- melting point: 331 °C
- chromatographic logP [2, 4]: 1.54

Compound: Cn1cnc2c(cnn2-c2ncc(C(F)(F)F)cc2Cl)c1=O [Example 2, 1-(3-chloro-5-trifluoromethylpyridin-2-yl)-5-methyl-1,5-dihydropyrazolo[3,4-d]pyrimidin-4-one]
- melting point: 253 °C
- chromatographic logP [2, 4]: 1.76

Compound: Cc1nc2c(cnn2-c2c(Cl)cc(C(F)(F)F)cc2Cl)c(=O)[nH]1 [Example 3, 1-(2,6-dichloro-4-trifluoromethylphenyl)-6-methyl-1,5-dihydropyrazolo[3,4-d]pyrimidin-4-one]
- melting point: 300 °C
- chromatographic logP [2, 4]: 2.25

Compound: Cc1nc2c(cnn2-c2c(Cl)cc(C(F)(F)F)cc2Cl)c(=O)n1C [Example 4, 1-(2,6-dichloro-4-trifluoromethylphenyl)-5,6-dimethyl-1,5-dihydropyrazolo[3,4-d]pyrimidin-4-one]
- melting point: 195 °C
- chromatographic logP [2, 4]: 2.69

Compound: Cc1nc2c(cnn2-c2ncc(C(F)(F)F)cc2Cl)c(=O)[nH]1 [Example 7]
- logP a) (Table 1, Physical data) [2]: (I) logP = 1.64^a)

Compound: Cc1nc2c(cnn2-c2ncc(C(F)(F)F)cc2Cl)c(=O)n1C [Example 8]
- logP a) (Table 1, Physical data) [2]: (I) logP = 1.97^a)
- herbicidal action against weeds (degree of damage) (weeds [3]): strong action against weeds

Compound: O=c1[nH]c(C(Cl)Cl)nc2c1cnn2-c1ncc(C(F)(F)F)cc1Cl [Example 12]
- logP a) (Table 1, Physical data) [2]: (I) logP = 2.39^a)

Compound: CCc1nc2c(cnn2-c2ncc(C(F)(F)F)cc2Cl)c(=O)[nH]1 [Example 13]
- logP a) (Table 1, Physical data) [2]: (I) logP = 2.39^a)

Compound: CC(C)c1nc2c(cnn2-c2ncc(C(F)(F)F)cc2Cl)c(=O)[nH]1 [Example 17]
- logP a) (Table 1, Physical data) [2]: (I) logP = 2.36^a)

Compound: CC(C)c1nc2c(cnn2-c2ncc(C(F)(F)F)cc2Cl)c(=O)n1C [Example 18]
- herbicidal action against weeds (degree of damage) (weeds [1]): strong action against weeds
- logP a) (Table 1, Physical data) [2]: (I) logP = 2.89^a)
- herbicidal action against weeds (degree of damage) (weeds [3]): strong action against weeds

Compound: CCCc1nc2c(cnn2-c2ncc(C(F)(F)F)cc2Cl)c(=O)[nH]1 [Example 23]
- logP a) (Table 1, Physical data) [2]: (I) logP = 2.28^a)

Compound: CCCc1nc2c(cnn2-c2ncc(C(F)(F)F)cc2Cl)c(=O)n1C [Example 24]
- herbicidal action against weeds (degree of damage) (weeds [1]): strong action against weeds
- logP a) (Table 1, Physical data) [2]: (I) logP = 2.81^a)
- herbicidal action against weeds (degree of damage) (weeds [3]): strong action against weeds

Compound: CC(C)Cc1nc2c(cnn2-c2ncc(C(F)(F)F)cc2Cl)c(=O)[nH]1 [Example 25]
- logP a) (Table 1, Physical data) [2]: (I) logP = 2.52^a)

Compound: CC(C)(C)c1nc2c(cnn2-c2ncc(C(F)(F)F)cc2Cl)c(=O)[nH]1 [Example 26]
- logP a) (Table 1, Physical data) [2]: (I) logP = 2.74^a)

Compound: COc1nc(C(C)(C)C)nc2c1cnn2-c1ncc(C(F)(F)F)cc1Cl [Example 27]
- herbicidal action against weeds (degree of damage) (weeds [1]): strong action against weeds
- logP a) (Table 1, Physical data) [2]: (Ia) logP = 2.74^a)
- herbicidal action against weeds (degree of damage) (weeds [3]): strong action against weeds

Compound: O=c1[nH]c(C(F)(F)F)nc2c1cnn2-c1ncc(C(F)(F)F)cc1Cl [Example 37]
- logP a) (Table 1, Physical data) [2]: (I) logP = 2.42^a)

Compound: Cn1c(C(F)(F)F)nc2c(cnn2-c2ncc(C(F)(F)F)cc2Cl)c1=O [Example 38]
- logP a) (Table 1, Physical data) [2]: (I) logP = 3.11^a)

Compound: COc1nc(C(F)(F)F)nc2c1cnn2-c1ncc(C(F)(F)F)cc1Cl [Example 39]
- herbicidal action against weeds (degree of damage) (weeds [1]): strong action against weeds
- logP a) (Table 1, Physical data) [2]: (Ia) logP = 3.99^a)

Compound: CCOC(=O)COc1nc(C(F)(F)F)nc2c1cnn2-c1ncc(C(F)(F)F)cc1Cl [Example 42]
- logP a) (Table 1, Physical data) [2]: (Ia) logP = 4.05^a)

Compound: O=c1[nH]c(C(F)(F)Cl)nc2c1cnn2-c1ncc(C(F)(F)F)cc1Cl [Example 43]
- logP a) (Table 1, Physical data) [2]: (I) logP = 2.53^a)

Compound: O=c1[nH]c(C(F)(F)C(F)(F)F)nc2c1cnn2-c1ncc(C(F)(F)F)cc1Cl [Example 44]
- logP a) (Table 1, Physical data) [2]: (I) logP = 2.84^a)

Compound: CCOC(=O)c1nc2c(cnn2-c2ncc(C(F)(F)F)cc2Cl)c(=O)n1C [Example 46]
- logP a) (Table 1, Physical data) [2]: (I) logP = 2.74^a)

Compound: CCn1c(C2CC2)nc2c(cnn2-c2ncc(C(F)(F)F)cc2Cl)c1=O [Example 50]
- logP a) (Table 1, Physical data) [2]: (I) logP = 2.96^a)

Compound: CCOc1nc(C2CC2)nc2c1cnn2-c1ncc(C(F)(F)F)cc1Cl [Example 51]
- logP a) (Table 1, Physical data) [2]: (Ia) logP = 4.42^a)

Compound: CC(C)Oc1nc(C2CC2)nc2c1cnn2-c1ncc(C(F)(F)F)cc1Cl [Example 52]
- logP a) (Table 1, Physical data) [2]: (Ia) logP = 4.86^a)

Compound: C#CCn1c(C2CC2)nc2c(cnn2-c2ncc(C(F)(F)F)cc2Cl)c1=O [Example 56]
- logP a) (Table 1, Physical data) [2]: (I) logP = 2.95^a)

Compound: FC(F)Oc1nc(C2CC2)nc2c1cnn2-c1ncc(C(F)(F)F)cc1Cl [Example 57]
- herbicidal action against weeds (degree of damage) (weeds [1]): strong action against weeds
- logP a) (Table 1, Physical data) [2]: (Ia) logP = 4.24^a)
- herbicidal action against weeds (degree of damage) (weeds [3]): strong action against weeds

Compound: CCOC(=O)COc1nc(C2CC2)nc2c1cnn2-c1ncc(C(F)(F)F)cc1Cl [Example 58]
- logP a) (Table 1, Physical data) [2]: (Ia) logP = 3.88^a)

Compound: Cn1c(C2(F)CC2)nc2c(cnn2-c2ncc(C(F)(F)F)cc2Cl)c1=O [Example 59]
- herbicidal action against weeds (degree of damage) (weeds [1]): strong action against weeds
- logP a) (Table 1, Physical data) [2]: (I) logP = 2.82^a)
- herbicidal action against weeds (degree of damage) (weeds [3]): strong action against weeds

Compound: COc1nc(C2(F)CC2)nc2c1cnn2-c1ncc(C(F)(F)F)cc1Cl [Example 60]
- herbicidal action against weeds (degree of damage) (weeds [1]): strong action against weeds
- logP a) (Table 1, Physical data) [2]: (Ia) logP = 3.73^a)
- herbicidal action against weeds (degree of damage) (weeds [3]): strong action against weeds

Compound: O=c1[nH]c(C2CCC2)nc2c1cnn2-c1ncc(C(F)(F)F)cc1Cl [Example 63]
- logP a) (Table 1, Physical data) [2]: (I) logP = 2.46^a)

Compound: Cn1c(C2CCC2)nc2c(cnn2-c2ncc(C(F)(F)F)cc2Cl)c1=O [Example 64]
- herbicidal action against weeds (degree of damage) (weeds [1]): strong action against weeds
- logP a) (Table 1, Physical data) [2]: (I) logP = 3.03^a)
- herbicidal action against weeds (degree of damage) (weeds [3]): strong action against weeds

Compound: COc1nc(C(F)(F)F)nc2c1cnn2-c1ncc(Cl)cc1Cl [Example 72]
- logP a) (Table 1, Physical data) [2]: (Ia) logP = 3.76^a)

Compound: Cc1nc2c(cnn2-c2ccc(C(F)(F)F)cc2Cl)c(=O)n1C [Example 81]
- logP a) (Table 1, Physical data) [2]: (I) logP = 2.30^a)

Compound: CC(C)c1nc2c(cnn2-c2ccc(C(F)(F)F)cc2Cl)c(=O)n1C [Example 84]
- logP a) (Table 1, Physical data) [2]: (I) logP = 3.52^a)

Compound: Cc1nc2c(cnn2-c2nn(C)c(OC(F)F)c2Cl)c(=O)[nH]1 [Example 98]
- logP a) (Table 1, Physical data) [2]: (I) logP = 1.40^a)m.p. = 254 °C

Compound: Cc1nc2c(cnn2-c2nn(C)c(OC(F)F)c2Cl)c(=O)n1C [Example 99]
- logP a) (Table 1, Physical data) [2]: (I) logP = 1.68^a)m.p. = 199 °C

Compound: Cn1nc(-n2ncc3c(=O)[nH]c(C4CC4)nc32)cc1OC(F)F [Example 101]
- logP a) (Table 1, Physical data) [2]: (I) logP = 1.59^a)

Compound: Cn1nc(-n2ncc3c(=O)n(C)c(C4CC4)nc32)cc1OC(F)F [Example 102]
- logP a) (Table 1, Physical data) [2]: (I) logP = 1.90^a)

Compound: COc1nc(C2CC2)nc2c1cnn2-c1cc(OC(F)F)n(C)n1 [Example 103]
- logP a) (Table 1, Physical data) [2]: (Ia) logP = 3.02^a)

Compound: Cn1nc(-n2ncc3c(=O)[nH]c(C4CC4)nc32)c(Cl)c1OC(F)F [Example 106]
- logP a) (Table 1, Physical data) [2]: (I) logP = 1.85^a)m.p. = 210 °C

Compound: Cn1nc(-n2ncc3c(=O)n(C)c(C4CC4)nc32)c(Cl)c1OC(F)F [Example 107]
- logP a) (Table 1, Physical data) [2]: (I) logP = 2.21^a)m.p. = 220 °C

Compound: Cn1c(C2CC2)nc2c(cnn2-c2ncc(C(F)(F)F)cc2Cl)c1=O [Example 109, 1-(3-chloro-5-trifluoromethylpyridin-2-yl)-5-methyl-6-cyclopropyl-1,5-dihydropyrazolo[3,4-d]pyrimidin-4-one]
- herbicidal action against weeds (degree of damage) (weeds [1]): strong action against weeds
- chromatographic logP [2, 4]: 2.61
- chromatographic logP ([2]; reversed-phase HPLC column (C18); acidic range: 0.1% phosphoric acid, acetonitrile gradient; C18; 43° C.; read-out: logP a) (Table 1, Physical data)): 2.61
- herbicidal action against weeds (degree of damage) (weeds [3]): strong action against weeds

Compound: NC(=O)c1cnn(-c2ncc(Cl)cc2Cl)c1N [II-2]
- logP a) (Table 2, Physical data) [2]: logP = 1.02^a)

Compound: CC(C)(C)C(=O)Nc1c(C(N)=O)cnn1-c1ncc(C(F)(F)F)cc1Cl [VI-2]
- logP a) (Table 3, Physical data) [2]: logP = 2.20^a)

Compound: CC(C)(CCl)C(=O)Nc1c(C(N)=O)cnn1-c1ncc(C(F)(F)F)cc1Cl [VI-3]
- logP a) (Table 3, Physical data) [2]: logP = 2.26^a)

Source: patent US20050209251A1, “Substituted pyrazolo-pyrimidine-4-ones” (priority 2002, published 2005)
